Consider 77 sequences from the supplement of paper PMC2824726.

This data set deals with MDA-MB-231. Put plainly: shRNA barcode abundance ratio t_end/t_zero (depletion over 4 weeks of proliferation) (log2 ratio); higher = less depletion (weaker anti-proliferative effect of the shRNA). The conditions noted are these: time after t zero 28 days. The method, then: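 Pooled lentiviral negative-selection screen of 305 pGIPZ shRNAs (Open Biosystems V2LHS clones; the 21-nt half-hairpin sense stem is embedded in a mir-30 scaffold) in MDA-MB-231 breast carcinoma cells, infected at MOI 0.3 with 0.5 ug/ml puromycin selection. Barcode abundance was read on barcode tiling microarrays (six 25-nt probes per 60-nt barcode) at t_zero (5 days post-infection) and t_end (33 days; 28 days of culture after t_zero). Values are median-normalised t_end/t_zero signal ratios, averaged over the tiling probes that passed a 10-fold background filter, from three biological replicates.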

Consider “CGAGACATTCGCATCAAATAT (targeted gene: NRG2)”, for which the “shRNA barcode abundance ratio t end/t zero (log2)” value is 0.219.
The figure for “CGGATTAGGGCATTTGAGAAA (targeted gene: IL7)” is 0.319; for “GGTATTCTCATCAAGAAACTT (targeted gene: BCL2A1)” it is 0.349.
Take “CCTGCCCATTAGAGAAGTATT (targeted gene: VHL)”: the “shRNA barcode abundance ratio t end/t zero (log2)” value is -0.221.
The figure for “CCGTGCTAACTGTGTGTACAT (targeted gene: PEA15)” is -1.15; for “CGCAAGAATCTGTTCCTAGTG (targeted gene: FAIM3)” it is -0.255.
The figure for “GGGCAAGTTTCCATCATCTAT (targeted gene: TDGF1)” is -0.11; for “GCAAATTTCATGACCAGTAAA (targeted gene: TDGF1)” it is -0.234.
As for “GGATATTGAACAGAGTATTAA (targeted gene: ANXA4)”, the figure is -0.0211; as for “GGCCATTATGCACAGGTTGAA (targeted gene: CD40LG)”, 0.119; as for “GGCTAGACTTAGATTCATTAA (targeted gene: VHL)”, 0.486.
Turning to “ACAGATATTTACTTCTGCAAA (targeted gene: CD28)”, the “shRNA barcode abundance ratio t end/t zero (log2)” value was 0.143.
The figure for “GCACATCCTTGCTAATTTCAA (targeted gene: TPT1)” is 0.0219; for “CCGCAAAGAATCAAGTTGCAA (targeted gene: HSPA8)” it is -0.446.
Regarding “GGCCCAAGGTCCAAGTAGAAT (targeted gene: HSPA8)”, the “shRNA barcode abundance ratio t end/t zero (log2)” value came out at 0.332.
For “GCTAACTGTGTGTACATATAT (targeted gene: PEA15)”, the “shRNA barcode abundance ratio t end/t zero (log2)” value was -0.216.
For the sequence “CGTAAGATGATGGATTTGATT (targeted gene: BIRC5)”, the “shRNA barcode abundance ratio t end/t zero (log2)” value is 0.0401.
As for “GCTCACTCTTCAGTCGGAAAT (targeted gene: BCL2L1)”, the figure is -0.368; as for “GCGTGCCATGACAAAGGATAA (targeted gene: HSPA8)”, -0.885; as for “GCAAAGATCCTGATATCTTAT (targeted gene: RASA1)”, 0.278.
The figure for “CCAACATATCTCACTCTAGAA (targeted gene: BARD1)” is 0.531; for “CCTTAGCAATGTCTTAGGAAA (targeted gene: BIRC5)” it is -2.27; for “CCATTCTGATTCTTCAGTCAT (targeted gene: TOPORS)” it is 0.459.
For the sequence “GCTGCTTCTGTCTGGTTTATT (targeted gene: THY1)”, the “shRNA barcode abundance ratio t end/t zero (log2)” value was -0.0341.
The figure for “CGAGTTTGTGGACTCCTTTAA (targeted gene: BAD)” is -0.185.
As for “GGTCACTTTGTATATAGAATT (targeted gene: HBXIP)”, the figure is 0.371.
As for “CGAGGCAACTTGAACTCAGAA (targeted gene: IER3)”, the figure is 0.272; as for “GCTTAGAACTTTAAGCAACAA (targeted gene: TNF)”, -1.56.
Regarding “GGCCTGACAATGGTACCTATT (targeted gene: HDAC3)”, the “shRNA barcode abundance ratio t end/t zero (log2)” value is -1.93.
Take “GCCTGTCCATTGGTGATGTTG (targeted gene: HMGB1)”: the “shRNA barcode abundance ratio t end/t zero (log2)” value was -0.18.
For “GCCTATGACTTTATCATGAAA (targeted gene: ABCB1)”, the “shRNA barcode abundance ratio t end/t zero (log2)” value came out at 0.0933.
As for “CCAGTGACCTTCGCTCCACAT (targeted gene: BAD)”, the “shRNA barcode abundance ratio t end/t zero (log2)” value was found to be 0.391.
In the case of “GCAGTAGCCTTGATAGATTAT (targeted gene: BIRC6)”, the “shRNA barcode abundance ratio t end/t zero (log2)” value is -0.00928.
As for “CCTGGGCATTCTTGTTTCAAT (targeted gene: IL1A)”, the figure is -0.328; as for “TCACACTGGTTCTCAATGAAA (targeted gene: BAG1)”, 0.198.
As for “GCAGCTTCCTTGAACCATTAT (targeted gene: SPHK1)”, the figure is -0.397; as for “GGATGCTTCTGAATAGAAATA (targeted gene: BIRC7)”, 0.0929.
Take “GGTAAAGATGGCAAACAATAT (targeted gene: IL7)”: the “shRNA barcode abundance ratio t end/t zero (log2)” value came out at 0.391.
Turning to “GCCTTGGAACTGATGAAGATA (targeted gene: ANXA1)”, the “shRNA barcode abundance ratio t end/t zero (log2)” value is 0.483.
As for “CCATAGCAAGGCCTAATGTTA (targeted gene: FANCF)”, the figure is 0.00383; as for “CCAGATAATATTAAGGGAAAT (targeted gene: ABCB1)”, 0.255.
As for “CGGTATTAAGTTGTAATTTAA (targeted gene: PROK2)”, the figure is 0.137; as for “ACCTGCAGAATAATAAAGTCA (targeted gene: S100A8)”, -0.295.
As to “CCATTTACAGCCATTTCTAAA (targeted gene: ESR1)”, the “shRNA barcode abundance ratio t end/t zero (log2)” value amounted to 0.128.
As for “GGCCTTGGAACTGATGAAGAT (targeted gene: ANXA1)”, the figure is 0.259.
The figure for “GCCAAGTTCTTAGTTGCTGTA (targeted gene: CXCR4)” is -1.59; for “GCTGGACAACTTGTTGTTAAA (targeted gene: IL10)” it is 0.168; for “GGCACAACACTAATTACCATT (targeted gene: PROK2)” it is 0.0935.
For “CAACGGAACTTGTTTGCTCTT (targeted gene: SOCS3)”, the “shRNA barcode abundance ratio t end/t zero (log2)” value is -0.536.
As for “CGTGATTCTAAGAATCTCAAA (targeted gene: IL1A)”, the figure is 0.666; as for “CGCCAGCACCGGAGGAAGAAA (targeted gene: CDKN2A)”, -0.0357; as for “GGCAGGTATTTGACATATTAA (targeted gene: NFKB1)”, 0.217.
The figure for “CATCTCAGTATGCATGGTATA (targeted gene: CFLAR)” is -0.976; for “GGAGTGAGATTGATCTGTTTA (targeted gene: ANXA5)” it is -0.0616; for “GCAGATTCAAGTCAATCTGAA (targeted gene: NFIA)” it is 0.355.
Turning to “GCTATACGAATGGGATTTGAT (targeted gene: BIRC8)”, the “shRNA barcode abundance ratio t end/t zero (log2)” value was 0.211.
As for “CCAGAGAATTTGCTTACCAAA (targeted gene: RALBP1)”, the figure is 0.116; as for “CGTCGTAATCACCACACTGAA (targeted gene: CDH1)”, 0.11.
The figure for “CCAAAGCATTTCATTGAGAAT (targeted gene: TOPORS)” is -0.193.
Regarding “CGACTCTATCAGGGTATAAAT (targeted gene: MSH2)”, the “shRNA barcode abundance ratio t end/t zero (log2)” value was found to be 0.0312.
In the case of “GCGCAAGAAATCCCGGTATAA (targeted gene: VEGFA)”, the “shRNA barcode abundance ratio t end/t zero (log2)” value is 0.382.
The figure for “GCGGTTCTTAGAAGAGTACTT (targeted gene: DAD1)” is -0.432.
Consider “GCTCACTACCAAATGTTAATA (targeted gene: BAD)”, for which the “shRNA barcode abundance ratio t end/t zero (log2)” value was 0.223.
With “CCCTTCTTTGGGAATATAATT (targeted gene: CBX4)”, the “shRNA barcode abundance ratio t end/t zero (log2)” value is 0.505.
The figure for “TCAGGAAATGTTATCAGCAAA (targeted gene: BNIP2)” is 0.477; for “CGCTACTTCCTCCTCAAGAAT (targeted gene: AKT1)” it is 0.372.
As for “GCGTTTAAGGTGAGCATAAAT (targeted gene: CYP1B1)”, the figure is -0.142.
“GCCCTGATTGTGTATATTCAT (targeted gene: BCL2)”: the “shRNA barcode abundance ratio t end/t zero (log2)” value is 0.006.
The figure for “GGTTTGTGCCTTACATTATTA (targeted gene: PSEN1)” is -1.92; for “CCATTGCCCATCGAGATTTAA (targeted gene: ACVR1)” it is 0.196.
As to “GCACAACCAGTTCTGCAATAT (targeted gene: TAX1BP1)”, the “shRNA barcode abundance ratio t end/t zero (log2)” value amounted to 0.565.
Take “GGAAATTCTTTCACTTCATTA (targeted gene: MCL1)”: the “shRNA barcode abundance ratio t end/t zero (log2)” value was determined as 0.208.
The figure for “AGACATAAAGCCATCTCTTAT (targeted gene: NME5)” is 0.11.
As for “CCAGGAGAACAGTTGTTAAAT (targeted gene: HIPK3)”, the figure is 0.228; as for “GGGCATTTGAGAAATGCATAT (targeted gene: IL7)”, 0.11; as for “GCCTTGAAACATTGATGGAAT (targeted gene: BCL2)”, 0.25.
On to “GGTCTCCTTAGGGAACATAAA (targeted gene: ATM)”, for which the “shRNA barcode abundance ratio t end/t zero (log2)” value was -0.27.
